Values after ≈ are worked out from the molar mass of the structure shown. Where two headings read alike, the source gives them in different places.
Assays:
[1] = test system: M. tuberculosis H37Rv (ATCC 25618 Wild-type); assay: microbe, parasite or virus in culture; type: cell-based
[2] = test system: M. tuberculosis HN-878 (wild-type); assay: microbe, parasite or virus in culture; type: cell-based
[3] = test system: S. aureus NCTC 12493; assay: in vitro antistaphylococcal activity, broth microdilution method (MIC/MBC); type: cell-based, Staphylococcus aureus; settings: for MIC / MBC: Staphylococcus aureus; for MIC: NCTC12493, lowest concentration inhibiting visible growth; for MBC: NCTC12493, lowest concentration reducing viability of inoculum by ≥99.9%, 24 h at 37° C.
[4] = Mycobacterium tuberculosis, 120 h; read-out: Mycobacterium tuberculosis strain MIC90, H37Rv
[5] = Mycobacterium tuberculosis, 120 h; read-out: Mycobacterium tuberculosis strain MIC90, HN-878

| Structure (SMILES) | MIC90 [1, 4] [µM] | MIC90 [2, 5] [µM] | MBC value relative to MIC value [3] | MIC [3] [µg/mL] | MBC [3] [µg/mL] | MIC90 ([1]; Mycobacterium tuberculosis, 120 h, read-out: Mycobacterium tuberculosis strain MIC90, H37Rv) [µM] | MIC90 ([2]; Mycobacterium tuberculosis, 120 h, read-out: Mycobacterium tuberculosis strain MIC90, HN-878) [µM] |
| --- | --- | --- | --- | --- | --- | --- | --- |
| CO[C@H]1/C=C/O[C@@]2(C)Oc3c(C)c(O)c4c(O)c(c(CNCCOCCOCCOCn5cc(CCCn6cc(F)c(=O)[nH]c6=O)nn5)c(O)c4c3C2=O)NC(=O)/C(C)=C\C=C\[C@H](C)[C@H](C)[C@@H](C)[C@@H](O)[C@@H](C)[C@H](OC(C)=O)[C@@H]1C [Compound 3C] | 0.0034 (≈ 0.00377 µg/mL) | 0.07 ± 0.042 (≈ 0.0776 µg/mL) |  |  |  |  |  |
| CO[C@H]1/C=C/O[C@@]2(C)Oc3c(C)c(O)c4c(O)c(c(/C=N/N5CCN(C)CC5)c(O)c4c3C2=O)NC(=O)/C(C)=C\C=C\[C@H](C)[C@H](O)[C@@H](C)[C@@H](O)[C@@H](C)[C@H](OC(C)=O)[C@@H]1C [Rifampicin, reference compound] |  |  | 16 times | 0.25 (≈ 0.304 µM) | 4 (≈ 4.86 µM) | 0.0045 (≈ 0.0037 µg/mL) | 0.02 (≈ 0.0165 µg/mL) |
| CO[C@H]1/C=C/O[C@@]2(C)Oc3c(C)c(O)c4c(O)c(c(CNCCOCCOCCOCn5cc(CCn6cc(F)c(=O)[nH]c6=O)nn5)c(O)c4c3C2=O)NC(=O)/C(C)=C\C=C\[C@H](C)[C@H](C)[C@@H](C)[C@@H](O)[C@@H](C)[C@H](OC(C)=O)[C@@H]1C [Compound 3B] | 0.0039 (≈ 0.00427 µg/mL) | 0.096 ± 0.064 (≈ 0.105 µg/mL) | the same | 2 (≈ 1.83 µM) | 2 (≈ 1.83 µM) |  |  |
| NNC(=O)c1ccncc1 [Isoniazid, reference compound] | 0.28 (≈ 0.0384 µg/mL) | 0.29 (≈ 0.0398 µg/mL) |  |  |  |  |  |
| O=c1[nH]cc(F)c(=O)[nH]1 [Compound 5-FU, 5-Fluorouracil, reference compound] |  |  | 8 times | 2 (≈ 15.4 µM) | 16 (≈ 123 µM) |  |  |
| CO[C@H]1/C=C/O[C@@]2(C)Oc3c(C)c(O)c4c(O)c(c(CNCCCn5cc(CCn6cc(F)c(=O)[nH]c6=O)nn5)c(O)c4c3C2=O)NC(=O)/C(C)=C\C=C\[C@H](C)[C@H](C)[C@@H](C)[C@@H](O)[C@@H](C)[C@H](OC(C)=O)[C@@H]1C [Compound 3A] | 0.0039 (≈ 0.00386 µg/mL) | 0.059 ± 0.01 (≈ 0.0584 µg/mL) | the same | 1 (≈ 1.01 µM) | 1 (≈ 1.01 µM) |  |  |
